Measured values from ChEMBL document CHEMBL3992562, “Multifunctional thioxanthone derivatives with acetylcholinesterase, monoamine oxidases and β-amyloid aggregation inhibitory activities as potential agents against Alzheimer's disease” (Bioorg Med Chem, 2017).
Activity calls are given as the source filed them. The rule behind the calls is not given here.

How the values were obtained:
[1] = target: T1, Amine oxidase [flavin-containing] B (Homo sapiens, UniProt P27338); experiment: Inhibition of recombinant human MAO-B expressed in baculovirus infected BTI insect cells using kynuramine as substrate after 30 mins by fluorimetric method; type: cell-based
T1 sequence (P27338 whole entry): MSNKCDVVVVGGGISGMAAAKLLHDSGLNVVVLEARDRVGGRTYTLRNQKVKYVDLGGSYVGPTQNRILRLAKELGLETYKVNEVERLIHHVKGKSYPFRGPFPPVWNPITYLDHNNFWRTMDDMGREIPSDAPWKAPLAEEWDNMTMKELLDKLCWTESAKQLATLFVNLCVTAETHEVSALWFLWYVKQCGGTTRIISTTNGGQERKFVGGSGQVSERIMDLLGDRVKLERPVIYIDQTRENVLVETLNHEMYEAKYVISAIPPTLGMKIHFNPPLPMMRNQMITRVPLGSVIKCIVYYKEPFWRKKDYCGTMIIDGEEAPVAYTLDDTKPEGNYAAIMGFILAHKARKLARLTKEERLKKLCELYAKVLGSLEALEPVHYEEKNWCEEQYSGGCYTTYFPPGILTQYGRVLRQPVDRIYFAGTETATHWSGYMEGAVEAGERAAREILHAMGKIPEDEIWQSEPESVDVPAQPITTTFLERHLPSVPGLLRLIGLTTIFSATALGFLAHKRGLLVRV

[2] = target: T2, Amine oxidase [flavin-containing] A (Homo sapiens, UniProt P21397); experiment: Inhibition of recombinant human MAO-A expressed in baculovirus infected BTI insect cells using kynuramine as substrate after 30 mins by fluorimetric method
T2 sequence (P21397 whole entry): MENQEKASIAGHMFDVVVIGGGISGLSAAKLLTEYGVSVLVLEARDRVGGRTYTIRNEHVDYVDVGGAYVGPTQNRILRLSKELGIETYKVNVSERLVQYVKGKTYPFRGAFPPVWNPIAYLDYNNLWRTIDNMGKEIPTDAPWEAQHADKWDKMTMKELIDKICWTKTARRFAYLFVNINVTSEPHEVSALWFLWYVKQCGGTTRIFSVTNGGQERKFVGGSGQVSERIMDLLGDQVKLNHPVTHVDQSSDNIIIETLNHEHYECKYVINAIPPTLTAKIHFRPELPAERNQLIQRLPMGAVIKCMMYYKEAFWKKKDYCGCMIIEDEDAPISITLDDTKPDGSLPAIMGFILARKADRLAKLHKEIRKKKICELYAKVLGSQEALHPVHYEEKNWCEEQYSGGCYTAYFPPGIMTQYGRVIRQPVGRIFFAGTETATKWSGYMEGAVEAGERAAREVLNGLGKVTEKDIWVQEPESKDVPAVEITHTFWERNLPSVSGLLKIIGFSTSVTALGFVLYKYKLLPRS

[3] = Inhibition of cupric ion-mediated amyloid beta (1 to 42) aggregation at 25 uM measured after 24 hrs by ThT fluorescence assay relative to control
[4] = Antioxidant activity assessed as trolox equivalent of AAPH-induced radical scavenging activity at 5 uM incubated for 15 mins prior to APPH challenge measured every minute for 90 mins by ORAC-FL assay; type: functional
[5] = species on record: Homo sapiens; experiment: Selectivity index, ratio of IC50 for recombinant human MAO-A expressed in baculovirus infected BTI insect cells to IC50 for recombinant human MAO-B expressed in baculovirus infected BTI insect cells
[6] = test system: BuChE (butyrylcholinesterase); experiment: Inhibition of rat serum BuChE at 50 uM using S-butylthiocholine iodide as substrate measured after 15 mins by Ellman's method relative to control; settings: probe S-butylthiocholine iodide
[7] = target: Acetylcholinesterase (Electrophorus electricus, UniProt O42275); experiment: Inhibition of electric eel AChE using acetylthiocholine iodide as substrate measured after 15 mins by Ellman's method
Acetylcholinesterase, sequence (O42275 whole entry): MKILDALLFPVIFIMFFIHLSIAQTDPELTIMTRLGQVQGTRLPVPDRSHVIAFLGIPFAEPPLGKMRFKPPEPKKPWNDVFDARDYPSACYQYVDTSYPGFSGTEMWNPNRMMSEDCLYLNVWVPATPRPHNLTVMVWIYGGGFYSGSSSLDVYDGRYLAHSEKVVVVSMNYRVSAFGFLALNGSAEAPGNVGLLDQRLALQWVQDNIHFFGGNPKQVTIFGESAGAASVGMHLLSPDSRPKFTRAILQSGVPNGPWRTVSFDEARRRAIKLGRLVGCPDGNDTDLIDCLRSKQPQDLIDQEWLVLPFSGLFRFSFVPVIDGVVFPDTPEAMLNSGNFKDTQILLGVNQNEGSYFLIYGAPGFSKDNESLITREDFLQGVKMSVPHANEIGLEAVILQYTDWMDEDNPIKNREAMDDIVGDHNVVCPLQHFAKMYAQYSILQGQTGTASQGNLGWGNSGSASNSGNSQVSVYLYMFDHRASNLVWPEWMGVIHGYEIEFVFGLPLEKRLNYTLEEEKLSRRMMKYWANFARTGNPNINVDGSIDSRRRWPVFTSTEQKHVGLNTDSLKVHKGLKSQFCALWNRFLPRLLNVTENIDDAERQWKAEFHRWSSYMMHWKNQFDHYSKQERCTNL

[8] = target: Amyloid-beta precursor protein (Homo sapiens) (UniProt P05067); experiment: Inhibition of self-induced amyloid beta (1 to 42) (unknown origin) aggregation at 25 uM measured after 24 hrs by ThT fluorescence assay relative to control
Amyloid-beta precursor protein (Homo sapiens), sequence (P05067 whole entry): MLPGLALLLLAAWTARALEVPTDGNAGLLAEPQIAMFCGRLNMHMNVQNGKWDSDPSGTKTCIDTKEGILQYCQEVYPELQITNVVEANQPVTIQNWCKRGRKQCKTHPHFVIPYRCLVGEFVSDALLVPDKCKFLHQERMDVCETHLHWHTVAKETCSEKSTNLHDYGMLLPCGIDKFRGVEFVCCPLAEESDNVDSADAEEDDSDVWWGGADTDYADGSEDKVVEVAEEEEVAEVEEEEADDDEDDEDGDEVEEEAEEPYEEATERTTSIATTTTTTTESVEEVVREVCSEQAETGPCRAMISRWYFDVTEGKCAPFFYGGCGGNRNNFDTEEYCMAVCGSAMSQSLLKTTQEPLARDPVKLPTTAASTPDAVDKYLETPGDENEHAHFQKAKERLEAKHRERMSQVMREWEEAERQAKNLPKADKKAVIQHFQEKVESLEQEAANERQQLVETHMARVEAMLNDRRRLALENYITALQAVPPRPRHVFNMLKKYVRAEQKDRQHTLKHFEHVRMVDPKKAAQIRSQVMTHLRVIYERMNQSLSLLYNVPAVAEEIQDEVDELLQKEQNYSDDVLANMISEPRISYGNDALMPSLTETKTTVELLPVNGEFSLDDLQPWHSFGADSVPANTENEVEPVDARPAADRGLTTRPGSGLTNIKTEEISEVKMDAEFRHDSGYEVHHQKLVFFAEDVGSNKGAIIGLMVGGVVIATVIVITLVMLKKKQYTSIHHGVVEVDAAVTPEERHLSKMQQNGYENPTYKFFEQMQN

[9] = Permeability of the compound at 100 ug/ml after 18 hrs by PAMPA; type: physicochemical; settings: read-out: permeability
[10] = Cytotoxicity against human SH-SY5Y cells assessed as cell viability at 10 uM after 24 hrs by MTT assay relative to control; type: cell-based; settings: read-out: Activity
[11] = Metal chelating activity assessed as Fe2+-compound complex formation at 37.5 uM after 30 mins by UV-visible spectrometry; type: functional
[12] = Metal chelating activity assessed as mole fraction of compound required to show 1:1.5 stoichiometry for Cu2+-compound complex at 37.5 uM after 30 mins by UV-visible spectrometry; type: functional
[13] = Cytotoxicity against human SH-SY5Y cells assessed as cell viability at 100 uM after 24 hrs by MTT assay relative to control; type: cell-based; settings: read-out: Activity
[14] = Metal chelating activity assessed as Zn2+-compound complex formation at 37.5 uM after 30 mins by UV-visible spectrometry; type: functional
[15] = Metal chelating activity assessed as Cu2+-compound complex formation at 37.5 uM after 30 mins by UV-visible spectrometry; type: functional
[16] = Metal chelating activity assessed as Al3+-compound complex formation at 37.5 uM after 30 mins by UV-visible spectrometry; type: functional
[17] = Cytotoxicity against human SH-SY5Y cells assessed as cell viability at 1 uM after 24 hrs by MTT assay relative to control; type: cell-based; settings: read-out: Activity
[18] = target: Acetylcholinesterase (Electrophorus electricus) (UniProt O42275); experiment: Mixed-type inhibition of electric eel AChE using acetylthiocholine iodide as substrate preincubated for 15 mins followed by substrate addition by Lineweaver-Burk plot analysis
Acetylcholinesterase (Electrophorus electricus), sequence (O42275 24-633 limits assumed): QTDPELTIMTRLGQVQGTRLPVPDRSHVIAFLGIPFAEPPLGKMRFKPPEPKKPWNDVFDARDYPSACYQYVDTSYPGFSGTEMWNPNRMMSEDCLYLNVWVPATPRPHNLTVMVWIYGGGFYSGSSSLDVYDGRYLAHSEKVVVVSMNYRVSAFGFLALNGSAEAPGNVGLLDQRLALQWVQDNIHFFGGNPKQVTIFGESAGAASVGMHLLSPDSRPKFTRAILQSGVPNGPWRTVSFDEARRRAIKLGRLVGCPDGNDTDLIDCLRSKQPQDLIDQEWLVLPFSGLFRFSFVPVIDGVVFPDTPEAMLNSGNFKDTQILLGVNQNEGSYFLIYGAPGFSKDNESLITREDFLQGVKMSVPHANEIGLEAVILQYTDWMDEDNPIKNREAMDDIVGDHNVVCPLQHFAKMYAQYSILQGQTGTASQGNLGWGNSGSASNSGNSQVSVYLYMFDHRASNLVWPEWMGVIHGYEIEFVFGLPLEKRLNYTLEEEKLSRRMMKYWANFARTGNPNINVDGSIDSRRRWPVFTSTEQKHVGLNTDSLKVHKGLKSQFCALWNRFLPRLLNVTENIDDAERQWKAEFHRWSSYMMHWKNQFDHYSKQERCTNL

[19] = Inhibition of rat serum BuChE using S-butylthiocholine iodide as substrate measured after 15 mins by Ellman's method

SMILES | IC50 [1] | IC50 [2] | inhibition [3] | Activity [4] | Ratio IC50 [5] | inhibition at 0.25 h, 50 µM [6] | IC50 [7] | inhibition [8] | Papp at 18 h, 100 ug/ml [9] | viability at 24 h, 10 µM [10] | Activity [11] | Activity [12] | viability at 24 h, 100 µM [13] | Activity [14] | Activity [15] | Activity [16] | viability at 24 h, 1 µM [17] | inhibition [18] | IC50 [19]
CCN(CCCOc1cc(O)c2c(=O)c3ccccc3sc2c1)Cc1ccccc1N(C)C | 3730 nM | 5940 nM | 75.7% | 0.35 µMequiv/µM | 1.59 | 22.4% | 0.25 µM | 46.9% |  |  |  |  |  |  |  |  |  |  | 
CCN(CCCCCCOc1cc(O)c2c(=O)c3ccccc3sc2c1)Cc1ccc(N(C)C)cc1 | 390 nM | 1250 nM | 91.3% | 1.37 µMequiv/µM | 3.21 | < 5% | 33.8 µM | 76.3% |  |  |  |  |  |  |  |  |  |  | 
CCN(CCCOc1cc(O)c2c(=O)c3ccccc3sc2c1)Cc1ccc(N(C)C)cc1 | 3550 nM | 2790 nM | 85.4% | 1.38 µMequiv/µM | 0.79 | < 5% | 17.7 µM | 64.8% |  |  |  |  |  |  |  |  |  |  | 
CCN(CCCCCCOc1cc(O)c2c(=O)c3ccccc3sc2c1)Cc1ccccc1OC | 460 nM | 1300 nM | 86.3% | 0.83 µMequiv/µM | 2.83 | 13.9% | 11.5 µM | 78.7% |  |  |  |  |  |  |  |  |  |  | 
CCN(CCCCOc1cc(O)c2c(=O)c3ccccc3sc2c1)Cc1ccccc1N(C)C | 2020 nM | 1540 nM | 82.1% | 0.95 µMequiv/µM | 0.76 | 30.3% | 2.88 µM | 72.1% |  |  |  |  |  |  |  |  |  |  | 
CN(CCCCOc1cc(O)c2c(=O)c3ccccc3sc2c1)Cc1ccccc1 | 370 nM | 570 nM | 88.6% | 1.18 µMequiv/µM | 1.54 | < 5% | 12.4 µM | 79.5% |  |  |  |  |  |  |  |  |  |  | 
O=c1c2ccccc2sc2cc(O)cc(O)c12 | 300 nM | 280 nM | 31.4% | 0.42 µMequiv/µM | 0.93 | < 5% | 38.9 µM | 9.5% |  |  |  |  |  |  |  |  |  |  | 
COc1ccccc1CN(C)CCCCCCOc1cc(O)c2c(=O)c3ccccc3sc2c1 | 380 nM | 1030 nM | 86.5% | 0.66 µMequiv/µM | 2.71 | 14.9% | 4.28 µM | 68% |  |  |  |  |  |  |  |  |  |  | 
COc1cc(/C=C/C(=O)CC(=O)/C=C/c2ccc(O)c(OC)c2)ccc1O |  |  | 70% | 2.43 µMequiv/µM |  |  |  |  |  |  |  |  |  |  |  |  |  |  | 
CCN(CCCCOc1cc(O)c2c(=O)c3ccccc3sc2c1)Cc1ccc(N(C)C)cc1 | 2200 nM | 1000 nM | 81.9% | 1.5 µMequiv/µM | 0.45 | 7.15% | 25.4 µM | 77.1% |  |  |  |  |  |  |  |  |  |  | 
CCN(CCCOc1cc(O)c2c(=O)c3ccccc3sc2c1)Cc1ccccc1 | 7130 nM | 13200 nM | 70.9% | 0.59 µMequiv/µM | 1.85 | 31.8% | 18.4 µM | 46.9% |  |  |  |  |  |  |  |  |  |  | 
CN(CCCOc1cc(O)c2c(=O)c3ccccc3sc2c1)Cc1ccccc1 | 1730 nM | 16000 nM | 81.1% | 0.48 µMequiv/µM | 9.25 | < 5% | 11.2 µM | 40.5% |  |  |  |  |  |  |  |  |  |  | 
COc1ccccc1CN(C)CCCOc1cc(O)c2c(=O)c3ccccc3sc2c1 | 6090 nM | 6310 nM | 77.8% | 0.22 µMequiv/µM | 1.04 | 30.2% | 28.7 µM | 45.2% |  |  |  |  |  |  |  |  |  |  | 
COc1ccccc1CN(C)CCCCOc1cc(O)c2c(=O)c3ccccc3sc2c1 | 590 nM | 620 nM | 88% | 1.04 µMequiv/µM | 1.05 | 5.62% | 9.16 µM | 79.9% |  |  |  |  |  |  |  |  |  |  | 
CCN(CCCOc1cc(O)c2c(=O)c3ccccc3sc2c1)Cc1ccccc1OC | 1880 nM | 8170 nM | 80% | 0.68 µMequiv/µM | 4.35 | 17.3% | 2.79 µM | 68.2% |  |  |  |  |  |  |  |  |  |  | 
CCN(CCCCOc1cc(O)c2c(=O)c3ccccc3sc2c1)Cc1ccccc1OC | 880 nM | 1020 nM | 82% | 0.57 µMequiv/µM | 1.16 | < 5% | 15.5 µM | 89.4% |  |  |  |  |  |  |  |  |  |  | 
CCN(CCCCCCOc1cc(O)c2c(=O)c3ccccc3sc2c1)Cc1ccccc1 | 330 nM | 1440 nM | 76.4% | 0.17 µMequiv/µM | 4.36 | 8.83% | 0.58 µM | 50.6% | 4.12 ×10⁻⁶ cm/s |  |  |  |  |  |  |  |  |  | 
CCN(CCCCCCOc1cc(O)c2c(=O)c3ccccc3sc2c1)Cc1ccccc1N(C)C | 900 nM | 1010 nM | 87.7% | 0.74 µMequiv/µM | 1.12 | 28.7% | 0.59 µM | 74.8% | 3.49 ×10⁻⁶ cm/s | 96.8% | Active | 1.5 molar ratio | 68.1% | inactive | Active | inactive | 99.7% | Active | 
COc1cc2c(cc1OC)C(=O)C(CC1CCN(Cc3ccccc3)CC1)C2 (centres undefined) [DONEPEZIL] |  |  |  |  |  |  |  |  |  |  |  |  |  |  |  |  |  |  | 21.4 µM
CCN(CCCCOc1ccc(-c2coc3cc(OCCCCN(CC)Cc4ccccc4OC)cc(O)c3c2=O)cc1)Cc1ccccc1OC |  |  | 77.8% | 0.3 µMequiv/µM |  | 20% |  |  |  |  |  |  |  |  |  |  |  |  | 
CN(CCCCCCOc1cc(O)c2c(=O)c3ccccc3sc2c1)Cc1ccccc1 | 350 nM | 570 nM | 76.8% | 0.37 µMequiv/µM | 1.63 | < 5% | 0.32 µM | 47.5% |  |  |  |  |  |  |  |  |  |  | 
CCN(CCCCOc1cc(O)c2c(=O)c3ccccc3sc2c1)Cc1ccccc1 | 270 nM | 340 nM | 82.1% | 1 µMequiv/µM | 1.26 | < 5% | 22 µM | 75.8% |  |  |  |  |  |  |  |  |  |  | 
